Source: patent US20260240834A1, “METHODS OF TREATING CANCER” (XRad Holding Cayman Limited, priority 2023, published 2026)
Read-outs that look alike come from different tables or passages of the source. Values belong to the molecule of their own block, whether it stands above or below them.

Assays:
[1] = test system: HCC1937 BRCA1 mutant breast cancer cell line; assay: CellTiter-Glo (CTG) cell growth inhibition, HCC1937; type: cell-based, human; details: HCC1937 cells; for IC50: Homo sapiens, 168 h
Text: (§1) A549 human lung carcinoma cell line, UWB1.289 BRCA1 mutant human ovarian cancer cell line, and UWB1.289+BRCA1 stable cell line derived from UWB1.289, in which wild-type BRCA1 was restored, were obtained from the American Type Culture Collection (ATCC). Capan-1 BRCA2 mutant human pancreatic cell line was obtained from the Duke Cell Culture Facility (Duke University, Durham, NC). HCC1937 BRCA1 mutant breast cancer cell line was obtained from Simon Powell (Memorial-Sloan Kettering, NY, NY). All cell lines were authenticated by short tandem repeat profiling and tested negative for mycoplasma. A549 cells were cultured in RPMI 1640 medium (Gibco), supplemented with 10% fetal bovine serum (FBS) (Corning) and 1× Antibiotic-Antimycotic (A-A) (Gibco). Capan-1 cells were grown in Iscove's Modified Dulbecco's Medium (IMDM) (Gibco), 20% FBS and 1×A-A. HCC1937 cells were grown in Iscove's Modified Dulbecco's Medium, 15% serum, and L-glutamine (2 mM). UWB1.289 and UWB1.289+BRCA1 cells were grown in 50% RPMI 1640 supplemented with 1 mM Sodium Pyruvate, 10 mM HEPES and 4500 mg/L glucose and 50% Mammary Epithelial Growth Medium (MEGM) (Clonetics) with 200 ug/ml G-418 (Gibco) and supplemented with 3% FBS and 1×A-A. All cell lines were grown at 37° C. in 5% CO2. Cell growth inhibition was determined via the CellTiter-Glo (CTG) assay (Promega). […] HCC1937 and UWB1.289 cells were treated with increasing concentrations of Compound A, niraparib, or the combination for 7 days.

[2] = test system: Capan-1 BRCA2 mutant human pancreatic cell line; assay: CellTiter-Glo (CTG) cell growth inhibition, Capan-1; type: cell-based; details: Capan-1 cells; for IC50: Homo sapiens, 312 h
Text: as §1

[3] = test system: UWB1.289 BRCA1 mutant human ovarian cancer cell line; assay: CellTiter-Glo (CTG) cell growth inhibition, UWB1.289; type: cell-based; details: UWB1.289 cells; for IC50: Homo sapiens
Text: as §1

[4] = test system: UWB1.289+BRCA1 stable cell line (wild-type BRCA1 restored); assay: CellTiter-Glo (CTG) cell growth inhibition, UWB1.289+BRCA1; type: cell-based, human; details: for IC50: Homo sapiens, UWB1289, UWB1.289 + BRCA1 cells
Text: as §1

[5] = test system: A549 human lung carcinoma cell line, BRCA2 knockdown (shBRCA2); assay: Clonogenic survival assay, A549 with shBRCA2; type: cell-based; details: A549 cells with BRCA2 knockdown, Compound A at 250, 500 or 1000 nM, 8 days
Text: (§2) A549 human lung carcinoma cell line, UWB1.289 BRCA1 mutant human ovarian cancer cell line, and UWB1.289+BRCA1 stable cell line derived from UWB1.289, in which wild-type BRCA1 was restored, were obtained from the American Type Culture Collection (ATCC). Capan-1 BRCA2 mutant human pancreatic cell line was obtained from the Duke Cell Culture Facility (Duke University, Durham, NC). HCC1937 BRCA1 mutant breast cancer cell line was obtained from Simon Powell (Memorial-Sloan Kettering, NY, NY). All cell lines were authenticated by short tandem repeat profiling and tested negative for mycoplasma. A549 cells were cultured in RPMI 1640 medium (Gibco), supplemented with 10% fetal bovine serum (FBS) (Corning) and 1× Antibiotic-Antimycotic (A-A) (Gibco). Capan-1 cells were grown in Iscove's Modified Dulbecco's Medium (IMDM) (Gibco), 20% FBS and 1×A-A. HCC1937 cells were grown in Iscove's Modified Dulbecco's Medium, 15% serum, and L-glutamine (2 mM). […]
(§3) UWB1.289 and UWB1.289+BRCA1 cells were plated in 6-well plates at 1000 cells/well and treated with DMSO or Compound A at 250, 500 or 1000 nM for 8 days before colonies were counted. For shRNA experiments, A549 cells were treated with DMSO or Compound A at 250, 500 or 1000 nM following transduction of control shRNA or shBRCA2 for 8 days before colonies were counted. […]

[6] = test system: UWB1.289 BRCA1 mutant human ovarian cancer cell line; assay: Clonogenic survival assay, UWB1.289; type: cell-based; details: UWB1.289 cells, Compound A at 250, 500 or 1000 nM, 8 days
Text: as §2, §3

[7] = test system: UWB1.289+BRCA1 stable cell line (wild-type BRCA1 restored); assay: Clonogenic survival assay, UWB1.289+BRCA1; type: cell-based, human; details: UWB1.289+BRCA1 cells, Compound A at 250, 500 or 1000 nM, 8 days
Text: as §2, §3

[8] = Compound A in combination with niraparib, 7 days

IC50 ([1]; single agent, 7 days, CTG, read-out: Single Agent IC50 (mean ± SEM) Compound A): 1000 ± 170 nM | IC50 ([3]; UWB1289, 168 h, single agent, 7 days, CTG, read-out: Single Agent IC50 (mean ± SEM) Compound A): 260 ± 100 nM
SMILES: CC(C)NCCOc1ncc(-c2cc3c4c(cnc3cc2F)N(C)C(=O)C42CCC2)cc1NS(C)(=O)=O [Compound A]
CI50 (combination index, method of Chou) [1, 8]: 0.3 | CI50 (combination index, method of Chou) ([2]; Compound A in combination with niraparib, 13 days): 0.5 | IC50 ([2]; single agent, 13 days, CTG, read-out: Single Agent IC50 (mean ± SEM) Compound A): 810 ± 80 nM | CI50 (combination index, method of Chou) [3, 8]: 0.4 | IC50 ([4]; single agent, CTG, read-out: Single Agent IC50 (mean ± SEM) Compound A): 800 ± 10 nM | clonogenic survival [5]: dose-dependent decrease in survival | clonogenic survival [6]: exhibited sensitivity to Compound A | clonogenic survival [7]: rescued with re-expression of wild-type BRCA1

IC50 ([1]; 0.25 μM Compound A + increasing concentrations of niraparib for 7 days, read-out: IC50 + 0.25 μM Compound A (mean ± SEM) Niraparib): 380 ± 180 nM | IC50 ([1]; single agent, 7 days, CTG, read-out: Single Agent IC50 (mean ± SEM) Niraparib): 3700 ± 270 nM | IC50 ([3]; UWB1289, 168 h, single agent, 7 days, CTG, read-out: Single Agent IC50 (mean ± SEM) Niraparib): 330 ± 90 nM | IC50 ([3]; UWB1289, 0.25 μM Compound A + niraparib for 3 days, then niraparib alone for additional 4 days, read-out: IC50 + 0.25 μM Compound A (mean ± SEM) Niraparib): < 14 nM
SMILES: NC(=O)c1cccc2cn(-c3ccc([C@@H]4CCCNC4)cc3)nc12 [Niraparib, niraparib]
shift of the dose response curve of niraparib ([1]; addition of 0.25 μM Compound A): 10 fold | shift of the dose response curve of niraparib ([2]; addition of 0.5 μM Compound A): -5 fold | IC50 ([2]; 0.5 μM Compound A + increasing concentrations of niraparib for 13 days, read-out: IC50 + 0.5 μM Compound A (mean ± SEM) Niraparib): 110 ± 10 nM | IC50 ([2]; single agent, 13 days, CTG, read-out: Single Agent IC50 (mean ± SEM) Niraparib): 550 ± 50 nM | shift of the dose response curve of niraparib ([3]; 0.25 μM Compound A for 3 days of a 7-day treatment with niraparib): > 23 fold | IC50 ([4]; 0.25 μM Compound A + niraparib for 3 days, then niraparib alone for additional 4 days, read-out: IC50 + 0.25 μM Compound A (mean ± SEM) Niraparib): 140 ± 20 nM | IC50 ([4]; single agent, CTG, read-out: Single Agent IC50 (mean ± SEM) Niraparib): 1400 ± 110 nM | shift of the dose response curve of niraparib ([4]; UWB1.289+BRCA1 cells, 0.25 μM Compound A for 3 days of a 7-day treatment with niraparib): 10 fold
